Test results as given in PMC12380724, “The air pollutant phenanthrene disrupts calcium cycling and alters repolarization in female sheep ventricular cardiomyocytes” (Physiological Reports, 2025).

Biological target: T1, ERG channel (rapid delayed rectifier potassium channel, IKr) (Ovis aries, UniProt A0ACI6Q0V2)
T1 construct: gene KCNH2; native IKr in isolated left ventricular myocytes
T1 sequence (A0ACI6Q0V2 1-1163): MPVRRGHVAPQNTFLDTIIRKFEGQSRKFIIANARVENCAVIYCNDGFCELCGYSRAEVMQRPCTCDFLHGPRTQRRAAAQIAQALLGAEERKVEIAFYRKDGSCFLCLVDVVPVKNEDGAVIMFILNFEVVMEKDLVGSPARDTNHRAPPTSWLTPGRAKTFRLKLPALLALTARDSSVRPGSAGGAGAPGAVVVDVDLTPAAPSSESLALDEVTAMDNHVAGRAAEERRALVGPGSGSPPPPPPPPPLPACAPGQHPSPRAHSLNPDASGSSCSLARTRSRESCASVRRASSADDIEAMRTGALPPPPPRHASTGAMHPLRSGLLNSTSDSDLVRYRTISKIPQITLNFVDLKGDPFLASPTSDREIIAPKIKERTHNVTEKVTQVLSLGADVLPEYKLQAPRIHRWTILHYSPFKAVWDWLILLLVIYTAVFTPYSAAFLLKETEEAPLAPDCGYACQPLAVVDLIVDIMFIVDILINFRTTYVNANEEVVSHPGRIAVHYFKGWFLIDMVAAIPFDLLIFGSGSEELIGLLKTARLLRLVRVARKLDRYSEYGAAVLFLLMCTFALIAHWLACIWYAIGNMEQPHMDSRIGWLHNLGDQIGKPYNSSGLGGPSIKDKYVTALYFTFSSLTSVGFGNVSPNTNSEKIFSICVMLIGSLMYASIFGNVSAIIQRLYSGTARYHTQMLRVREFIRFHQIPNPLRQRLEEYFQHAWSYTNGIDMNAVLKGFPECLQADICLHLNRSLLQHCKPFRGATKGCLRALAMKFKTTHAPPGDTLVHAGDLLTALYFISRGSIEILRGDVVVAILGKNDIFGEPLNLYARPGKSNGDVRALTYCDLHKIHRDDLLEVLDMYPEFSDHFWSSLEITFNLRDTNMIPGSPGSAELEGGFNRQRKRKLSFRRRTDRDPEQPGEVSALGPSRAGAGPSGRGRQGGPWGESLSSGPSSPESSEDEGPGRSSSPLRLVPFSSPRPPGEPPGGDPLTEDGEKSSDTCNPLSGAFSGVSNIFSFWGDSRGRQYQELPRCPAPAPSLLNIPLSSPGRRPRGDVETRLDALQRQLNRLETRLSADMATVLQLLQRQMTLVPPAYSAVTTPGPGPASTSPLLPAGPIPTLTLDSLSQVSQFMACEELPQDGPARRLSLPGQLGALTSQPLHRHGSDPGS
Test: whole-cell patch-clamp of native IKr tail current
Type: cell-based

c1ccc2c(c1)ccc1ccccc12 [Phe, phenanthrene]
inhibition at 25 µM: 55.8%
